Reference: ChEMBL document CHEMBL5321227, “Lysosome-targeting phenalenones as efficient type I/II photosensitizers for anticancer photodynamic therapy” (Eur J Med Chem, 2023)
The source made the active and inactive calls. The rule behind the calls is not given here.

Columns and labels:
[1] = Toxicity in BALB/c mouse xenografted with mouse 4T1 cells assessed as tissue destruction with large spaces in lung at 5 mg/kg,IT(Intratumoral) for 14 days followed by photoirradiation with 500 to 700nm light (0.5 W) for 6 hrs by Hematoxylin and Eosin staining based microscopy; format: organism-based; conditions: in vivo, other, 342 h, time 14.25 day
4T1 [2] = experiment: Anticancer activity against mouse 4T1 cells assessed as reduction in cell viability at 0.01 to 10 uM incubated for 24 hrs by CCK-8 assay; format: functional, cell-based; conditions: dose 0.01-10 µM
[3] = Drug uptake in heart of BALB/c mouse xenografted with mouse 4T1 cells at 5 mg/kg,IT(Intratumoral) and measured after 6 hrs by fluorescence imaging analysis; format: ADME, organism-based; conditions: in vivo, other
[4] = Stability of compound in H2O2 at 10 uM incubated for 30 mins by fluorescence assay; format: physicochemical; conditions: 0.5 h
[5] = Induction of singlet oxygen production in ethanol assessed as singlet oxygen quantum yield at 410nm under photoirradiation with 550nm and 10 mW/cm^2 LED light for 10 to 80 secs by DPBF based microplate reader analysis; format: functional; conditions: time 10-80 sec
[6] = Toxicity in BALB/c mouse xenografted with mouse 4T1 cells assessed as tissue destruction with large spaces in heart at 5 mg/kg,IT(Intratumoral) for 14 days followed by photoirradiation with 500 to 700nm light (0.5 W) for 6 hrs by Hematoxylin and Eosin staining based microscopy; format: organism-based; conditions: in vivo, other, 342 h, time 14.25 day
[7] = Drug metabolism in carboxylesterase (unknown origin) assessed as formation of active photosensitizer 6-amino-5-iodo-1H-phenalen-1-one at 10 uM under by LC-MS/MS analysis assay; format: ADME; conditions: human
[8] = Drug uptake BALB/c mouse xenografted with mouse 4T1 cells assessed as increase in fluorescence signal in tumor at 5 mg/kg,IT(Intratumoral) and measured for 6 to 24 hrs by fluorescence imaging analysis; format: ADME, organism-based, Neoplasm; conditions: in vivo, other, time 6-24 hrs
[9] = Drug uptake in kidney of BALB/c mouse xenografted with mouse 4T1 cells at 5 mg/kg,IT(Intratumoral) and measured after 6 hrs by fluorescence imaging analysis; format: ADME, organism-based; conditions: in vivo, other
[10] = Photostability of compound in EtOH assessed as compound decomposition at 50 uM incubated for 5 to 20 mins under photoirradiation with 550nm and 10 J/cm^2 LED light by UV-visible spectroscopic analysis; format: physicochemical; conditions: time 5-20 min
[11] = Stability of compound in gamma-glutamyl transpeptidase at 10 uM incubated for 30 mins by fluorescence assay; format: physicochemical; conditions: 0.5 h
[12] = Drug uptake BALB/c mouse xenografted with mouse 4T1 cells assessed as increase in fluorescence signal in tumor at 5 mg/kg,IT(Intratumoral) and measured for 1 to 6 hrs by fluorescence imaging analysis; format: ADME, organism-based, Neoplasm; conditions: in vivo, other, time 1-6 hrs
[13] = Drug metabolism in human MDA-MB-231 cells assessed as increase in SR expression at 5 uM incubated for 2 hrs by flow cytometry analysis; format: ADME, cell-based; conditions: mda-mb-231, 2 h
4T1 [14] = experiment: Anticancer activity against mouse 4T1 cells assessed as reduction in cell viability preincubated for 2 hrs followed by photoirradiation with 500 to 700nm and 12 J/cm^2 LED light for 24 hrs by CCK-8 assay; format: functional, cell-based; conditions: 4T1, light or radiation study
[15] = Drug uptake in liver of BALB/c mouse xenografted with mouse 4T1 cells at 5 mg/kg,IT(Intratumoral) and measured after 6 hrs by fluorescence imaging analysis; format: ADME, organism-based; conditions: in vivo, other
[16] = Toxicity in BALB/c mouse xenografted with mouse 4T1 cells assessed as tissue destruction with large spaces in kidney at 5 mg/kg,IT(Intratumoral) for 14 days followed by photoirradiation with 500 to 700nm light (0.5 W) for 6 hrs by Hematoxylin and Eosin staining based microscopy; format: organism-based; conditions: in vivo, other, 342 h, time 14.25 day
[17] = Toxicity in BALB/c mouse xenografted with mouse 4T1 cells assessed as body weight change at 5 mg/kg,IT(Intratumoral) for 14 days; format: organism-based; conditions: in vivo, other, 336 h, time 14 day
[18] = Toxicity in BALB/c mouse xenografted with mouse 4T1 cells assessed as histopathological lesion in heart at 5 mg/kg,IT(Intratumoral) for 14 days by Hematoxylin and Eosin staining based microscopy; format: organism-based; conditions: in vivo, other, 336 h, time 14 day
MDA-MB-231 [19] = experiment: Anticancer activity against human MDA-MB-231 cells assessed as number of dead cells at 2.5 uM incubated for 12 hrs by calcein-AM and propidium iodide staining based flow cytometry; format: functional, cell-based
4T1 [20] = experiment: Anticancer activity against mouse 4T1 cells assessed as fold increase in cleaved caspase-3 protein expression at 1 uM preincubated for 2 hrs followed by photoirradiation with 500 to 700nm and 12 J/cm^2 LED light and measured after 24 hrs by Western blot analysis relative to control; format: functional; conditions: time 26 hrs
MDA-MB-231 [21] = experiment: Anticancer activity against human MDA-MB-231 cells assessed as reduction in cell viability at 0.01 to 10 uM incubated for 24 hrs by CCK-8 assay; format: functional, cell-based; conditions: dose 0.01-10 µM
MDA-MB-231 [22] = experiment: Anticancer activity against human MDA-MB-231 cells assessed as number of dead cells at 2.5 uM preincubated for 12 hrs followed by photoirradiation with 500 to 700nm and 12 J/cm^2 LED light for 10 mins by calcein-AM and propidium iodide staining based flow cytometry; format: functional, cell-based; conditions: time 12.2 hrs
[23] = Toxicity in BALB/c mouse xenografted with mouse 4T1 cells assessed as histopathological lesion in lung at 5 mg/kg,IT(Intratumoral) for 14 days by Hematoxylin and Eosin staining based microscopy; format: organism-based; conditions: in vivo, other, 336 h, time 14 day
[24] = Drug uptake in spleen of BALB/c mouse xenografted with mouse 4T1 cells at 5 mg/kg,IT(Intratumoral) and measured after 6 hrs by fluorescence imaging analysis; format: ADME, organism-based; conditions: in vivo, other
4T1 [25] = experiment: Anticancer activity against mouse 4T1 cells assessed as fold increase in gamma-H2A.X protein expression at 1 uM preincubated for 2 hrs followed by photoirradiation with 500 to 700nm and 12 J/cm^2 LED light and measured after 24 hrs by Western blot analysis relative to control; format: functional; conditions: time 26 hrs
[26] = Drug uptake in tumor BALB/c mouse xenografted with mouse 4T1 cells at 5 mg/kg,IT(Intratumoral) and measured after 6 hrs by fluorescence imaging analysis; format: ADME, organism-based, Neoplasm; conditions: in vivo, other
[27] = Drug metabolism in mouse 4T1 cells assessed as increase in carboxylesterase mediated 6-amino-5-iodo-1H-phenalen-1-one release at 5 uM incubated for 2 hrs by confocal laser scanning microscopy; format: ADME, cell-based; conditions: 4t1, 2 h
[28] = Stability of compound in GSH at 10 uM incubated for 30 mins by fluorescence assay; format: physicochemical; conditions: 0.5 h
[29] = Stability of compound in various pH; format: physicochemical
[30] = Drug metabolism in carboxylesterase (unknown origin) assessed as formation of active photosensitizer 6-amino-5-iodo-1H-phenalen-1-one by measuring increase in fluorescence at 610nM at 10 uM under by fluorescence assay; format: ADME; conditions: human
[31] = Drug uptake BALB/c mouse xenografted with mouse 4T1 cells assessed as maximum fluorescence intensity in tumor at 5 mg/kg,IT(Intratumoral) and measured at 6 hrs by fluorescence imaging analysis; format: ADME, organism-based, Neoplasm; conditions: in vivo, other
MDA-MB-231 [32] = experiment: Anticancer activity against human MDA-MB-231 cells assessed as reduction in cell viability preincubated for 2 hrs followed by photoirradiation with 500 to 700nm and 12 J/cm^2 LED light for 24 hrs by CCK-8 assay; format: functional, cell-based; conditions: MDA-MB-231, light or radiation study

- Drug uptake [3]: Not Active
- Stability [4]: Stable
- Drug uptake [8]: Not Active
- Drug uptake [9]: Active
- Stability [10]: Stable
- Stability [11]: Stable
- Drug uptake [12]: Active
- Drug metabolism [13]: Metabolite_Detected
- IC50 (4T1 [14]): 1310 nM
- Drug uptake [15]: Active
- Drug uptake [24]: Not Active
- Drug uptake [26]: Active
- Drug metabolism [27]: Metabolite_Detected
- Stability [28]: Stable
- Stability [29]: Stable
- Drug uptake [31]: Active
- IC50 (MDA-MB-231 [32]): 1590 nM
SMILES: O=C(CCl)Nc1c(I)cc2c3c(cccc13)C(=O)C=C2
- Activity [1]: Toxic
- Activity (4T1 [2]): Active
- Activity [5]: 0.09
- Activity [6]: Toxic
- Drug metabolism [7]: Metabolite_Detected
- Activity [16]: Toxic
- Activity [17]: Toxic
- Activity [18]: Non-Toxic
- Activity (MDA-MB-231 [19]): inactive
- fold change (FC) (4T1 [20]): 3.45
- Activity (MDA-MB-231 [21]): Active
- Activity (MDA-MB-231 [22]): Active
- Activity [23]: Non-Toxic
- fold change (FC) (4T1 [25]): 2.12
- Drug metabolism [30]: Metabolite_Detected
